Measurements as given in patent EP0018019A1, “Antimicrobial water-soluble compound which contains a rare earth metal cation, its application in oral compositions and method for controlling microorganisms therewith” (priority 1979, dated 1980).
Where two headings read alike, the source gives them in different places.

Columns and labels:
[1] = Stain test on pellicle-coated plastic artificial molars (coffee/tea); conditions: for Stain Grade: 0-8 scale (0 no stain, 8 continuous dark brown stain); for promotion of stains: demonstrated by the stain test
Description: Plastic artificial molars were mounted in the caps of disposable plastic vials using dental cement. A thin, organic pellicle was developed on the teeth by exposure for about 17 hours to pooled human saliva which has been centrifuged for 2 minutes at 500X gravity to remove food and similar debris. The coated teeth were serially exposed for 5 minutes to a solution of the test material, a distilled water rinse, for 5 minutes to a solution of instant coffee and tea (20 grams of commercial instant coffee and 2 grams of commercial instant tea in 1 liter of distilled water), a distilled water rinse, the test solution for 5 minutes, a distilled water rinse, the coffee/tea solution for 5 minutes, and a final distilled water rinse. The teeth were then graded for degree of staining on a 0-8 scale (where 0 was no stain and 8 was continuous dark brown stain) by comparison with a photographic standard.

S. aureus = test: Minimum Bactericidal Concentration test; format: cell-based; conditions: 10-minute contact at 37°C
Description: (§1) The data are from standard tests for measuring Minimum Bactericidal Concentrations (using a 10-minute contact with the test agent at 37°C; representing at least 3 log unit reduction in viable cell count).

E. coli [2] = test: Minimum Bactericidal Concentration test; format: cell-based; conditions: 10-minute contact at 37°C
Description: as §1

E. coli [3] = format: cell-based; conditions: for Log Survivors/ml: approximately 10^7 E. coli/ml, 10 min. at 37°C; for effectiveness as component of the antimicrobial compositions: other polyvalent metals in place of the rare earth, tested in the foregoing manner
molds = conditions: cited from earlier work
Staphylococcus = conditions: cited from earlier work
[4] = Antimicrobial activity of rare earth/surfactant combinations; format: cell-based; conditions: in combination with a rare earth
Description: as §1

[5] = Water solubility / precipitation from solution; format: physicochemical; conditions: in combination with a rare earth
Excerpt: Moreover, the compounds herein or their rare earth metal components precipitate from solution at pH's above about 8. See: Moeller and Kremers, Chem. Rev. 37:114 (1945). Moreover, highly acid (below about pH 4) solutions of the surfactants herein have antimicrobial properties in their own right. Of course, compositions intended for oral use should have a pH above about 4 to avoid damage to dental enamel. With certain species of microorganisms, especially with Pityrosporum ovale which is the causative microorganism for dandruff, the compositions herein are optimally active in the pH range of 4.0-4.5.
The present invention specifically encompasses the more water-soluble, antimicrobially-active rare earth/alkyl benzene sulfonate compositions.

[6] = tested on: Ps. aeruginosa ATCC 15442; test: Minimum Bactericidal Concentration of LaLAS; format: cell-based; conditions: Gram-negative
Description: as §1

Strep. faecalis = test: Minimum Bactericidal Concentration of LaLAS; format: cell-based; conditions: Gram-positive
Description: as §1

Staph. aureus ATCC 6538 = test: Minimum Bactericidal Concentration of LaLAS; format: cell-based; conditions: Gram-positive
Description: as §1

E. coli ATCC 11775 = test: Minimum Bactericidal Concentration of LaLAS; format: cell-based; conditions: Gram-negative
Description: as §1

Proteus vulgaris = test: Minimum Bactericidal Concentration of LaLAS; format: cell-based; conditions: Gram-negative
Description: as §1

[7] = tested on: Staph. epidermidis ATCC 14990; test: Minimum Bactericidal Concentration of LaLAS; format: cell-based; conditions: Gram-positive
Description: as §1

Bacillus subtilis = test: Minimum Bactericidal Concentration of LaLAS; format: cell-based; conditions: Gram-positive
Description: as §1

Salmonella typhimurium = test: Minimum Bactericidal Concentration of LaLAS; format: cell-based; conditions: Gram-negative
Description: as §1

[8] = tested on: Micrococcus luteus ATCC 4698; test: Minimum Bactericidal Concentration of LaLAS; format: cell-based; conditions: Gram-positive
Description: as §1

[9] = tested on: Kleb. pneumoniae ATCC 4352; test: Minimum Bactericidal Concentration of LaLAS; format: cell-based; conditions: Gram-negative
Description: as §1

dental plaque = test: In vitro growth of dental plaque on extracted human teeth in growth chambers; format: cell-based; conditions: plaque-inhibiting solutions for one minute each morning and afternoon, four days; compared with water-treated controls
Excerpt: The efficacy of the antimicrobial composition LaLAS was compared with the known anti-plaque agent chlorhexidine digluconate for the prevention of dental plaque, as follows: • Lanthanum 4-(1'-methylnonyl)benzenesulfonate (LaLAS) was used in this test to reduce the in vitro growth of dental plaque on teeth. This was done using a system of glass growth chambers containing clean, extracted, sound human teeth mounted in stainless steel brackets. After sterilization in an autoclave, the growth chambers were inoculated with homogenized human plaque scrapings and serially treated with Trypticase® soy broth, sucrose, artificial saliva, and solutions of plaque-inhibiting materials for four days: The plaque-inhibiting solutions were introduced for one minute each morning and afternoon. After this treatment, the teeth were withdrawn from the growth chambers, stained with an alcoholic solution of basic fuchsin to disclose any plaque that had formed and, after randomization, graded for percent plaque coverage by three trained judges. Percent plaque reduction was calculated by comparison with water-treated controls. [formula]

[10] = 3 molecular equivalents of Na surfactant to 1 molecular equivalent of LaCl3
[11] = Rare Earth Cation 0.01 mM + 2-C10LAS 0.03 mM
[12] = Rare Earth Cation 0.05 mM + 2-C10LAS 0.15 mM
[13] = Rare Earth Cation 0.1 mM + 2-C10LAS 0.3 mM
[14] = Rare Earth Cation 0.1 mM alone, 2-C10LAS 0 mM
[15] = inorganic lanthanum salt alone, at least 3 log unit reduction in viable cell count

CCCCCCCCCCCCCCCC[n+]1ccccc1 [Cetylpyridinium chloride]
Stain Grade ([1]; 2000 ppm test solution): 2.7

[H]/N=C(\N/C(=N/[H])NCCCCCCNC(=N)NC(=N)Nc1ccc(Cl)cc1)Nc1ccc(Cl)cc1 [Chlorhexidine]
Stain Grade ([1]; 2000 ppm test solution): 3.2

CCCCCCCCC(C)c1ccc(S(=O)(=O)O)cc1 (stereo not shown) [Compound 2-C10LAS, 4-(l'-methylnonyl)benzenesulfonate]
Minimum Bactericidal Concentration (ppm) S. aureus Na salt + LaCl3 (S. aureus; [10]): 32 ppm | MBC (S. aureus; Staphylococcus aureus, 10 min, surfactant as Na salt alone, read-out: Minimum Bactericidal Concentration (ppm) S. aureus as Na salt): 2000 µg/mL | Minimum Bactericidal Concentration (ppm) E. coli Na salt + LaCl3 (E. coli [2]; [10]): 32 ppm | MBC (E. coli [2]; Escherichia coli, 10 min, surfactant as Na salt alone, read-out: Minimum Bactericidal Concentration (ppm) E. coli as Na salt): > 2000 µg/mL | Log Survivors/ml (E. coli [3]; Rare Earth Cation 0 mM, 2-C10LAS 0.3 mM alone): 6

[Cl][Dy]([Cl])[Cl] [DyCl3]
Log Survivors/ml (E. coli [3]; [11]): 0 | Log Survivors/ml (E. coli [3]; [12]): 0 | Log Survivors/ml (E. coli [3]; [13]): 0 | Log Survivors/ml (E. coli [3]; [14]): 3

[Cl][La]([Cl])[Cl] [LaCl3]
Log Survivors/ml (E. coli [3]; [11]): 0 | Log Survivors/ml (E. coli [3]; [12]): 0 | Log Survivors/ml (E. coli [3]; [13]): 0 | Log Survivors/ml (E. coli [3]; [14]): 5

O.O.O.O.O.O.[Cl-].[Cl-].[Cl-].[La+3] [LaCl3·6H2O, lanthanum chloride hexahydrate]
Minimum Bactericidal Concentration (S. aureus; [15]): >3500 ppm | Minimum Bactericidal Concentration (E. coli [2]; [15]): >3500 ppm

[Cl][Nd]([Cl])[Cl] [NdCl3]
Log Survivors/ml (E. coli [3]; [11]): 1 | Log Survivors/ml (E. coli [3]; [12]): 0 | Log Survivors/ml (E. coli [3]; [13]): 0 | Log Survivors/ml (E. coli [3]; [14]): 3

[Cl][Pr]([Cl])[Cl] [PrCl3]
Log Survivors/ml (E. coli [3]; [11]): 0 | Log Survivors/ml (E. coli [3]; [12]): 0 | Log Survivors/ml (E. coli [3]; [13]): 0 | Log Survivors/ml (E. coli [3]; [14]): 3

[Cl][Yb]([Cl])[Cl] [YbCl3]
Log Survivors/ml (E. coli [3]; [11]): 0 | Log Survivors/ml (E. coli [3]; [12]): 0 | Log Survivors/ml (E. coli [3]; [13]): 0 | Log Survivors/ml (E. coli [3]; [14]): 2

[Ca] [calcium]
effectiveness as component of the antimicrobial compositions (E. coli [3]): ineffective

O=[N+]([O-])[O-].O=[N+]([O-])[O-].O=[N+]([O-])[O-].[Ce+3] [cerium nitrate]
concentration that inhibits molds (molds): 1000 ppm | concentration that inhibits Staphylococcus (Staphylococcus): 1000 ppm

[H]/N=C(\N/C(=N/[H])NCCCCCCNC(=N)NC(=N)Nc1ccc(Cl)cc1)Nc1ccc(Cl)cc1 [chlorhexidine digluconate]
promotion of stains [1]: undesirably promotes stains

[Fe] [iron]
effectiveness as component of the antimicrobial compositions (E. coli [3]): ineffective

[Mg] [magnesium]
effectiveness as component of the antimicrobial compositions (E. coli [3]): ineffective

CCCCCCCCCCCCc1ccc(S(=O)(=O)O)cc1 [n-C12LAS]
antimicrobial activity [4]: rather poor | water solubility [5]: rather water-insoluble

aluminum
effectiveness as component of the antimicrobial compositions (E. coli [3]): ineffective

lanthanum 4-(l'-methylnonyl)benzenesulfonate [LaLAS]
Minimum Bactericidal Conc. of LaLAS [6]: 16 ppm | Minimum Bactericidal Conc. of LaLAS (Strep. faecalis): 32 ppm | Minimum Bactericidal Conc. of LaLAS (Staph. aureus ATCC 6538): 32 ppm | Minimum Bactericidal Conc. of LaLAS (E. coli ATCC 11775): 32 ppm | Minimum Bactericidal Conc. of LaLAS (Proteus vulgaris): 32 ppm | Minimum Bactericidal Conc. of LaLAS [7]: 32 ppm | Minimum Bactericidal Conc. of LaLAS (Bacillus subtilis): 500 ppm | Minimum Bactericidal Conc. of LaLAS (Salmonella typhimurium): 125 ppm | Minimum Bactericidal Conc. of LaLAS [8]: 125 ppm | Minimum Bactericidal Conc. of LaLAS [9]: 125 ppm | anti-plaque efficacy (dental plaque): equivalent to chlorhexidine digluconate | Stain Grade ([1]; 2000 ppm in 20% EtOH): 0 | Stain Grade ([1]; 2000 ppm test solution): 0.1 | promotion of stains [1]: does not
